According to EP3620052A1, “USE OF PHENOXYPYRIDINYL-SUBSTITUTED (1H-1,2,4-TRIAZOL-1-YL)ALCOHOLS FOR CONTROLLING FUNGICIDAL DISEASES IN MAIZE” (Bayer Aktiengesellschaft, priority 2018, dated 2020):

Experiments:
Format in all cases: in vivo
Cercospora zeae maydis = experiment: Field trials in Brazilian maize: disease control (Abbott efficacy) after foliar spray; conditions: 125 g a.i./ha, two foliar applications, Brazil, 2 trials; untreated control 40 % disease severity
Procedure: (§1) In 2017/2018 five field trials in maize were conducted in order to study the effect of compounds of formula (I) and standard azole-type fungicides regarding disease control against leaf diseases and crop safety.
(§2) The trials were done under practical field conditions in Brazil in the Safrinha season with the commercially available maize varieties P30F53 Pioneer, P30F53 RR - Roundup Ready® Pioneer, P30F53YHV Pioneer, DKB 390 Dekalb® and DKB 390 IPRO3 Dekalb®.
(§3) These trials were conducted in the following federal states in Brazil: Goias, Mato Grosso, Minas Gerais, Parana and Sao Paulo.
(§4) The tested compounds / reference products, their respective formulation type and rates of application [g a.i./ha] Tab.1: Products, formulations and rates.
(§5) The products were sprayed twice in sequential, foliar applications at growth stages BBCH EC 39 - 55 and BBCH EC 51 - 69 with a spray interval of about 2 weeks with backpack or bicycle applicators.
(§6) The water quantity for the applications was 150 l / ha.
(§7) About 14 - 28 days after the second application crop response and disease control were assessed visually by rating the damaged leaves or plant parts.
(§8) The efficacy against the pathogens listed in table 2 was calculated according to Abbott's formula: Efficacy (%) = (X−Y)/X × 100, [formula] wherein X is the disease severity in the control and Y is the disease severity in the treatment, and is shown in table 2 [%].

Helminthosporium spp. = experiment: as above; conditions: 125 g a.i./ha, two foliar applications, Brazil, 3 trials; untreated control 22 % disease severity
Procedure: as §1, §2, §3, §4, §5, §6, §7, §8

Phaeosphaeria maydis = experiment: as above; conditions: 125 g a.i./ha, two foliar applications, Brazil, 3 trials; untreated control 44 % disease severity
Procedure: as §1, §2, §3, §4, §5, §6, §7, §8

Puccinia polysora = experiment: as above; conditions: 125 g a.i./ha, two foliar applications, Brazil, 1 trial; untreated control 73 % disease severity
Procedure: as §1, §2, §3, §4, §5, §6, §7, §8

Puccinia sorghi = experiment: as above; conditions: 125 g a.i./ha, two foliar applications, Brazil, 2 trials; untreated control 20 % disease severity
Procedure: as §1, §2, §3, §4, §5, §6, §7, §8

maize [1] = experiment: Field trials in Brazilian maize: crop response (phytotoxicity) after foliar spray; conditions: 125 g a.i./ha, two foliar applications, Brazil field trials, assessed 14 - 28 days after second application, 5 trials
Procedure: as §1, §2, §3, §4, §5, §6, §7

maize [2] = experiment: Field trials in Brazilian maize: yield relative to untreated control; conditions: 125 g a.i./ha, two foliar applications, Brazil, 3 trials; untreated control (43 dt/ha) = 100%
Procedure: as §1, §2, §3, §4, §5, §6
The yield of the untreated control (43 dt/ha) is set to 100% and the yield values for the other treatments are given in percent thereof. Tab. 2: Impact of foliar applications of tested compounds on crop response, disease control and yield.

maize [3] = experiment: Field trials in North American maize: crop response (phytotoxicity) after foliar spray; conditions: for PTX (%): one foliar application BBCH EC 63 - 65, Canada/USA, 3 trials
maize [4] = experiment: Field trials in North American maize: yield relative to untreated control; conditions: for Yield (% of Control): one foliar application, 2 trials, untreated control (112 dt/ha) = 100%
Procedure: (§9) In 2018 eight field trials in maize were conducted in order to study the effect of compounds of formula (I) and standard azole-type fungicides regarding disease control against leaf diseases.
(§10) The trials were done under practical field conditions in Canada and the USA with the commercially available maize varieties DKC 62-08 Dekalb®, DKC 35-88 RIB RR2 BT Dekalb®, P7958 AM RR2 LL BT (Marc Hutlet Seeds Ltd.), NK1120-3122 RR+GLU+ECB+CRW (Syngenta), P9608AM LL RR2 CRW ECB (Pioneer) and Golden Bantam (conventional variety available from various companies worldwide).
(§11) These trials were conducted in the following provinces in Canada and federal states in North America: Ontario (Canada) and Georgia, Indiana, Iowa, Michigan, Ohio (all USA).
(§12) The tested compounds / reference products, their respective formulation type and rates of application [g a.i./ha] Tab.3: Products, formulations and rates.
(§13) In table 4 details of the formulations of (1-02) used in the different trials are listed. Tab.4: Formulations of (1-02) and a tank mixed surfactant used in different trials.
(§14) The products were sprayed with one foliar application at growth stage BBCH EC 63 - 65 with a high clearance sprayer or a backpack applicator.
(§15) The water quantity for the applications varied from 150 to 300 l/ha.
The yield of the untreated control (112 dt/ha) is set to 100% and the yield values for the other treatments are given in percent thereof Tab. 5: Impact of foliar applications of tested compounds on disease control.

Kabatiella zeae = experiment: Field trials in North American maize: disease control (Abbott efficacy) after foliar spray; conditions: one foliar application, 1 trial, untreated control 17 % disease severity
Procedure: as §9, §10, §11, §12, §13, §14, §15
(§16) About 23 - 35 days after application the disease control was assessed visually by rating the damaged leaves or plant parts.
(§17) The efficacy against the pathogens listed in table 5 was calculated according to Abbott's formula: Efficacy (%) = (X−Y)/X × 100, [formula] wherein X is the disease severity in the control and Y is the disease severity in the treatment, and is shown in table 5 [%].

Setosphaeria turcica = experiment: as above; conditions: one foliar application, 2 trials, untreated control 18 % disease severity
Procedure: as §9, §10, §11, §12, §13, §14, §15, §16, §17

[5] = system: Cochliobolus heterostrophus; experiment: as above; conditions: one foliar application, 1 trial, untreated control 12 % disease severity
Procedure: as §9, §10, §11, §12, §13, §14, §15, §16, §17

[6] = Canada/USA field trials, 60 -125 g a.i./ha

| Structure (SMILES) | Cercospora zeae maydis (% efficacy) (Cercospora zeae maydis) | Helminthosporium spp. (% efficacy) (Helminthosporium spp.) | Phaeosphaeria maydis (% efficacy) (Phaeosphaeria maydis) | Puccinia polysora (% efficacy) (Puccinia polysora) | Puccinia sorghi (% efficacy) (Puccinia sorghi) | PTX (%) (maize [1]) | Yield (% of Control) (maize [2]) | PTX (%) (maize [3]; 60 g a.i./ha (100 EC or 250 SC)) | PTX (%) (maize [3]; 125 g a.i./ha (100 EC or 250 SC)) | crop safety (conclusion in words) (maize [3]; [6]) | Yield (% of Control) (maize [4]; 60 g a.i./ha) | Yield (% of Control) (maize [4]; 125 g a.i./ha) | impact on yield (conclusion in words) (maize [4]; [6]) | Kabatiella zeae (% efficacy) (Kabatiella zeae; 60 g a.i./ha) | Kabatiella zeae (% efficacy) (Kabatiella zeae; 125 g a.i./ha) | Setosphaeria turcica (% efficacy) (Setosphaeria turcica; 60 g a.i./ha) | Setosphaeria turcica (% efficacy) (Setosphaeria turcica; 125 g a.i./ha) | Cochliobolus heterostrophus (% efficacy) ([5]; 60 g a.i./ha) | Cochliobolus heterostrophus (% efficacy) ([5]; 125 g a.i./ha) |
| --- | --- | --- | --- | --- | --- | --- | --- | --- | --- | --- | --- | --- | --- | --- | --- | --- | --- | --- | --- |
| CC(O)(Cn1cncn1)c1ccc(Oc2ccc(Br)cc2)nc1C(F)(F)F (centres unmarked) [(I-02), 2-[6-(4-bromophenoxy)-2-(trifluoromethyl)-3-pyridyl]-1-(1,2,4-triazol-1-yl)propan-2-ol] | 70% | 63% | 64% | 74% | 68% | 0% | 112 % of Control | 0% | 0% | completely safe on the crop | 120 % of Control | 115 % of Control | positive impact on yield | 89% | 95% | 57% | 61% | 91% | 97% |
| CC(O)(Cn1cncn1)c1ccc(Oc2ccc(Cl)cc2)nc1C(F)(F)F (centres unmarked) [(I-01), 2-[6-(4-chlorophenoxy)-2-(trifluoromethyl)-3-pyridyl]-1-(1,2,4-triazol-1-yl)propan-2-ol] | 61% | 65% | 68% | 76% | 71% | 0% | 123 % of Control |  |  |  |  |  |  |  |  |  |  |  |  |
